Experimental data: EP1501514B1, “PROTEIN KINASE MODULATORS AND METHODS OF USE” (Exelixis, Inc., priority 2002, dated 2003)
Where two headings read alike, the source gives them in different places.

Biological target: T1, Chk1 (Homo sapiens, UniProt O14757)
T1 construct: purchased Upstate Biotechnology
T1 sequence (O14757 1-476): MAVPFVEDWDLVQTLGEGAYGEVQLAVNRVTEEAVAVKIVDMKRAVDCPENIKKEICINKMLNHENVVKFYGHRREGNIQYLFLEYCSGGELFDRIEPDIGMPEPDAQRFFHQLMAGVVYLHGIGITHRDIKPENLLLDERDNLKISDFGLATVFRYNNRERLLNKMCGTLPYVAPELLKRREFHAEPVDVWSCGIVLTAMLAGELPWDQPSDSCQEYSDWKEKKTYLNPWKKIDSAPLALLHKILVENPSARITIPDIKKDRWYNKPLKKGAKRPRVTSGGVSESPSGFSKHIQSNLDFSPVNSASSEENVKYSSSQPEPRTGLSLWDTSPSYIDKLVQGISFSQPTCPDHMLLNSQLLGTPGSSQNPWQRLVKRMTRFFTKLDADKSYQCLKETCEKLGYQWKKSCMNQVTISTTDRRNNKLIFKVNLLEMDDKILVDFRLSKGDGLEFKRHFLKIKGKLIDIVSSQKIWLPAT
Assay: Chk1 assay: incorporation of γ-33P ATP into immobilized myelin basic protein
Type: biochemical
Procedure: Chk1 and Chk2 assays were performed by measuring incorporation of γ-^33P ATP into immobilized myelin basic protein (MBP). High binding white 384 well plates (Greiner) were coated with MBP (Sigma #M-1891) by incubation of 60ul/well of 20µg/ml MBP in Tris-buffered saline (TBS; 50mM Tris pH 8.0, 138mM NaCl, 2.7mM KCl) for 24 hours at 4° C. Plates were washed 3X with 100µl TBS. Kinase reactions were carried out in a total volume of 34µl in kinase buffer (5mM Hepes pH 7.6, 15mM NaCl, 0.01% bovine gamma globulin (Sigma #I-5506), 10mM MgCl2, 1mM DTT, 0.02% TritonX-100). Compound dilutions were performed in DMSO and added to assay wells to a final DMSO concentration of 1%. Each data point was measured in duplicate, and at least two duplicate assays were performed for each individual compound determination. Chkl and Chk2 enzymes (Upstate Biotechnology) were added to final concentrations of 10nM (Chkl) or 20nM (Chk2). A mixture of unlabeled ATP and γ-^33P ATP was added to start the reaction (2x10^6 cpm of γ-^33P ATP per well (3000Ci/mmole) and either 10µM or 30µM unlabeled ATP (for Chkl and Chk2 assays respectively). The reaction was carried out for 1 hour at room temperature with shaking. Plates were washed 7x with TBS, followed by the addition of 50µl/well scintillation fluid (Wallac). Plates were read using a Wallac Trilux counter. This is only one format of such assays, various other formats are possible, as known to those skilled in the art.
The above assay procedure can be used to determine the IC50 for inhibition and/or the inhibition constant Ki. The IC50 is defined as the concentration of compound required to reduce the enzyme activity by 50% under the conditions of the assay. […] The Ki for a compound may be determined from the IC50 based on three assumptions. First, only one compound molecule binds to the enzyme and there is no cooperativity. […] Third, the enzymatic rate of the enzyme-inhibitor complex is zero. The rate (i.e., compound concentration) data are fitted to the equation: V = Vmax E0 [I-((E0+I0+Kd)-sqrt(((E0+I0+Kd))^2 -4E0 I0))/(2E0)] [formula]

[1] = Table 11, inhibition given as IC50 class symbol

SMILES | IC50 (Table 11, Chk1 only) [µM] | also measured
Cc1ccc(C(=O)Nc2cccc(-c3cnc(N)c(C(=O)N[C@H]4CCCNC4)n3)c2)cn1 [compound 978, 3-amino-6-(3-{[(6-methylpyridin-3-yl)carbonyl]amino}phenyl)-N-[(3S)-piperidin-3-yl]pyrazine-2-carboxamide] | – | IC50: < 0.05 µM
CNC(=O)c1nc(-c2cccnc2)cnc1N [compound 62, 3-amino-N-methyl-6-pyridin-3-ylpyrazine-2-carboxamide] | 1 to 10 | –
NC(=O)c1nc(-c2cccc3ccccc23)cnc1N [compound 26, 3-amino-6-naphthalen-1-ylpyrazine-2-carboxamide] | > 10 | –
CNC(=O)c1nc(-c2noc(-c3ccncc3)n2)cnc1N [compound 73, 3-amino-N-methyl-6-(5-pyridin-4-yl-1,2,4-oxadiazol-3-yl)pyrazine-2-carboxamide] | > 10 | –
Nc1ncc(-c2ccccc2)nc1C(=O)NCCc1ccccc1 [compound 1, 3-amino-6-phenyl-N-(2-phenylethyl)pyrazine-2-carboxamide] | > 10 | –
NC(=O)c1nc(-c2ccc(OCc3ccccc3)cc2)cnc1N [compound 43, 3-amino-6-{4-[(phenylmethyl)oxy]phenyl}pyrazine-2-carboxamide] | > 10 | –
Nc1ncc(-c2ccccc2)nc1C(=O)N[C@@H]1CCc2ccccc21 [compound 4, 3-amino-N-[(1R)-2,3-dihydro-1H-inden-1-yl]-6-phenylpyrazine-2-carboxamide] | > 10 | –
NC(=O)c1nc(-c2cccc(Cl)c2)cnc1N [compound 3, 3-amino-6-(3-chlorophenyl)pyrazine-2-carboxamide] | > 10 | –
Cc1cccc(-c2cnc(N)c(C(N)=O)n2)c1 [compound 33, 3-amino-6-(3-methylphenyl)pyrazine-2-carboxamide] | 1 to 10 | –
CCOc1ccc(-c2cnc(N)c(C(N)=O)n2)cc1 [compound 23, 3-amino-6-[4-(ethyloxy)phenyl]pyrazine-2-carboxamide] | 1 to 10 | –
CNC(=O)c1nc(-c2cccc(C(=O)NCc3ccc(C(C)(C)C)cc3)c2)cnc1N [compound 353, 3-amino-6-{3-[({[4-(1,1-dimethylethyl)phenyl]methyl}amino)carbonyl]phenyl}-N-methylpyrazine-2-carboxamide] | 0.05 to 1 | –
COC(=O)c1cccc(-c2cnc(N)c(C(N)=O)n2)c1 [compound 34, methyl 3-[5-amino-6-(aminocarbonyl)pyrazin-2-yl]benzoate] | 1 to 10 | –
NC(=O)c1nc(-c2cccc(OC(F)(F)F)c2)cnc1N [compound 28, 3-amino-6-{3-[(trifluoromethyl)oxy]phenyl}pyrazine-2-carboxamide] | 1 to 10 | –
Nc1ncc(-c2ccccc2)nc1C(=O)NCC1CC1 [compound 12, 3-amino-N-(cyclopropylmethyl)-6-phenylpyrazine-2-carboxamide] | > 10 | –
Nc1ncc(-c2ccccc2)nc1C(=O)NCc1ccccc1 [compound 2, 3-amino-6-phenyl-N-(phenylmethyl)pyrazine-2-carboxamide] | > 10 | –
CNC(=O)c1nc(-c2cccc(C)c2)cnc1N [compound 53, 3-amino-N-methyl-6-(3-methylphenyl)pyrazine-2-carboxamide] | 0.05 to 1 | –

SMILES | IC50 (Table 11, Chk1 only) [µM] | also measured
Nc1ncc(-c2cccc(C(=O)NCc3ccc(C(F)(F)F)cc3F)c2)nc1C(=O)N[C@H]1CCCNC1 [compound 1001, 3-amino-6-{3-[({[2-fluoro-4-(trifluoromethyl)phenyl]methyl}amino)carbonyl]phenyl}-N-[(3S)-piperidin-3-yl]pyrazine-2-carboxamide] | – | IC50: < 0.05 µM
CNC(=O)c1nc(-c2ccc(OC)cc2)cnc1N [compound 54, 3-amino-N-methyl-6-[4-(methyloxy)phenyl]pyrazine-2-carboxamide] | 1 to 10 | –
CCOc1cccc(-c2cnc(N)c(C(=O)NC)n2)c1 [compound 50, 3-amino-6-[3-(ethyloxy)phenyl]-N-methylpyrazine-2-carboxamide] | 1 to 10 | –
Nc1ncc(-c2ccccc2)nc1C(=O)NC1Cc2ccccc2C1 [compound 6, 3-amino-N-(2,3-dihydro-1H-inden-2-yl)-6-phenylpyrazine-2-carboxamide] | > 10 | –
CC(C)(C)c1nnc(-c2nc(-c3cccc(CO)c3)cnc2N)[nH]1 [compound 569, (3-{5-amino-6-[5-(1,1-dimethylethyl)-4H-1,2,4-triazol-3-yl]pyrazin-2-yl}phenyl)methanol] | – | IC50 [1]: 1 to 10 µM
Nc1ncc(-c2ccccc2)nc1C(=O)NO [compound 49, 3-amino-N-hydroxy-6-phenylpyrazine-2-carboxamide] | 1 to 10 | –
N=C(NNc1ccccc1)c1nc(-c2cccc(C(=O)N[C@H]3CCc4ccccc43)c2)cnc1N [compound 720, 3-{5-amino-6-[imino(2-phenylhydrazino)methyl]pyrazin-2-yl}-N-[(1S)-2,3-dihydro-1H-inden-1-yl]benzamide] | – | IC50 [1]: > 10 µM
CNC(=O)c1nc(-c2noc(C)n2)cnc1N [compound 71, 3-amino-N-methyl-6-(5-methyl-1,2,4-oxadiazol-3-yl)pyrazine-2-carboxamide] | 1 to 10 | –
Nc1ncc(-c2ccccc2)nc1C(=O)NC1CC1 [compound 20, 3-amino-N-cyclopropyl-6-phenylpyrazine-2-carboxamide] | > 10 | –
C[C@@H](NC(=O)c1cccc(-c2cnc(N)c(C(=O)N[C@H]3CCNC3)n2)c1)c1ccccc1 [compound 716, 3-amino-6-[3-({[(1R)-1-phenylethyl]amino}carbonyl)phenyl]-N-[(3S)-pyrrolidin-3-yl]pyrazine-2-carboxamide] | – | IC50 [1]: 1 to 10 µM
NC(=O)c1cccc(-c2cnc(N)c(C(N)=O)n2)c1 [compound 29, 3-amino-6-[3-(aminocarbonyl)phenyl]pyrazine-2-carboxamide] | 1 to 10 | –
CC(=O)Nc1cccc(-c2cnc(N)c(C(N)=O)n2)c1 [compound 30, 6-[3-(acetylamino)phenyl]-3-aminopyrazine-2-carboxamide] | 1 to 10 | –
CNC(=O)c1nc(-c2cccc(OCc3ccccc3)c2)cnc1N [compound 44, 3-amino-N-methyl-6-{3-[(phenylmethyl)oxy]phenyl}pyrazine-2-carboxamide] | 1 to 10 | –
Nc1ncc(-c2cccc(C(=O)N[C@H]3CCc4ccccc43)c2)nc1C(=O)N[C@H]1CCCNC1 [compound 764, 3-amino-6-(3-{[(1S)-2,3-dihydro-1H-inden-1-ylamino]carbonyl}phenyl)-N-[(3S)-piperidin-3-yl]pyrazine-2-carboxamide] | – | IC50 [1]: < 0.05 µM
CNC(=O)c1nc(-c2noc(-c3cccnc3)n2)cnc1N [compound 66, 3-amino-N-methyl-6-(5-pyridin-3-yl-1,2,4-oxadiazol-3-yl)pyrazine-2-carboxamide] | > 10 | –
